As usually defined, the EC50 is the concentration needed to bring the measured effect to its halfway point. Lower therefore signals greater potency.

Each structure is given as a SMILES string.

The values below come from BindingDB's records for doi:10.1021/acs.jmedchem.5b00964 (Peking Union Medical College, 2015).

The experiment deals with T1, X-box-binding protein 1 (Homo sapiens, UniProt P17861).
T1 sequence (P17861 whole entry): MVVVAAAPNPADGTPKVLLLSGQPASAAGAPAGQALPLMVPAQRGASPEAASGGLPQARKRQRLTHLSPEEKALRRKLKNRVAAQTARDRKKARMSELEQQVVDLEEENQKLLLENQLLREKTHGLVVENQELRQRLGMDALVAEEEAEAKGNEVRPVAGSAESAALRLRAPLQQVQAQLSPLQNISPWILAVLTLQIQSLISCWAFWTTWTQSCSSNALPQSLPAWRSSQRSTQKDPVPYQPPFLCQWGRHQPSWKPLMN
Nature of the experiment: Transactivation of XBP1 (unknown origin) transfected in rat IEC-6 cells after 48 hrs by dual luciferase reporter gene assay. On the technique in general: In a reporter assay the amount or activity of a reporter protein is the signal.
Take `C1=C2c3cc4c(cc3CCN2Cc2c1ccc1c2OCO1)OCO4`: the midpoint of the response, the EC50, lay at 2.3 nM.

`CC(=O)CC1c2c(ccc3c2OCO3)C=C2c3cc4c(cc3CCN21)OCO4` (stereo not drawn) yielded an EC50 of 220 nM.

As for `C=C(C(C)=O)c1c2c3c(ccc2c(C)c2[n+]1CCc1cc4c(cc1-2)OCO4)OCO3`, a half-maximal response (EC50) required 210 nM.
